Data as given in publication PMC8000724, “Trans-Epithelial Transport, Metabolism, and Biological Activity Assessment of the Multi-Target Lupin Peptide [sequence] (P5) and Its Metabolite [sequence] (P5-Met)” (Nutrients, 2021).

Tested on: LDLR on HepG2 cell surface
Experiment: In-cell Western (ICW) assay, LDLR localized on HepG2 cell surface
Format: cell-based, human
Protocol: For the experiments, a total of 3 × 10^4 HepG2 cells/well were seeded in 96-well plates. The following day, cells were washed with PBS and then starved overnight (O/N) in DMEM without FBS and antibiotics. After starvation, HepG2 cells were treated with 4.0 μg/mL PCSK9-WT and 4.0 μg/mL PCSK9 + peptides P5 and/or P5-met (50 µM) and vehicle (H2O) for 2 h at 37 °C under 5% CO2 atmosphere. Subsequently, they were fixed in 4% paraformaldehyde for 20 min at room temperature (RT). Cells were washed 5 times with 100 µL of PBS/well (each wash was for 5 min at RT) and the endogenous peroxides activity quenched adding 3% H2O2 for 20 min at RT. Non-specific sites were blocked with 100 µL/well of 5% bovine serum albumin (BSA, Sigma) in PBS for 1.5 h at RT. LDLR primary antibody solution (1:3000 in 5% BSA in PBS, 25 µL/well) was incubated O/N at +4 °C. Subsequently, the primary antibody solution was discarded and each sample was washed 5 times with 100 µL/well of PBS (each wash was for 5 min at RT). Goat anti-rabbit Ig-HRP secondary antibody solution (Santa Cruz) (1:6000 in 5% BSA in PBS, 50 µL/well), was added and incubated 1 h at RT. The secondary antibody solution was washed 5 times with 100 µL/well of PBS (each wash for 5 min at RT). Freshly prepared TMB substrate (Pierce, 100 µL/well) was added and the plate was incubated at RT until desired color was developed. The reaction was stopped with 2 M H2SO4 and then the absorbance at 450 nm was measured using the microplate reader Synergy H1 (Winooski, VT, USA). After the read, cells were stained by adding 1× Janus Green stain, incubating for 5 min at RT. The dye was removed and the sample washed 5 times with water. Afterward 100 µL 0.5 M HCl for well were added and incubated for 10 min. After 10 seconds shaking, the OD at 595 nm was measured using the microplate reader Synergy H1 (Winooski, VT, USA).

H-LPKHSDAD-OH [Peptide P5-met]
LDLR localized on the cellular membranes of HepG2 cells versus the control (HepG2, 50 µM, without added PCSK9, mean ± SD): 145.2 ±15.2%
LDLR level on HepG2 cell surface restored, co-incubation with PCSK9 (peptide 50 µM + PCSK9 4 µg/mL, 2 h, % of control, mean ± SD): 90.1 ± 0.1%
